Series [1] can be described thus: AUC measurement in oral administration, test with mice. It counts as in vivo. As to conditions: 30 mg/kg, 5% gum arabic suspension, plasma; for AUC∞: ICR mice; for AUC(0-inf): female, ICR, mouse, po. As for the experimental part: (§1) The AUC of specified compounds in oral administration was measured by the following tests.
A 5% gum arabic suspension (10 ml/kg) of a test substance (30 mg/kg) was forcibly administered orally into ICR mice (female, 8-10 week old) by means of a mouse stomach probe and after the lapse of specified periods of time (15 minutes, 30 minutes, and 1, 2, 4, 6, 8, 24 and 48 hours), whole blood was taken from the abdominal large vein (n=3 for each time period). The concentration of the test substance in the sampled plasma was measured by HPLC (eluant: acetonitrile/water) and AUC was determined by moment analysis from the average plasma concentration for each time period. The test substances were compound 1, compound 2, compound 4 and compound 5. Two control compounds were used, one being the first component prepared in step 1 of Example 1 (control compound 2) and the other being the second component (control compound 1).

Series [2] can be described thus: AUC measurement in oral administration, test with monkeys. It counts as in vivo. The conditions noted are these: female, cynomolgus monkey, 3 mg/kg, PEG/water/ethanol solution, plasma. The procedure:
as §1
A PEG/water/ethanol [8/4/3 (v/v)] solution (3 ml/kg) of a test substance (3 mg/kg) was administered orally into cynomolgus monkeys (female, 3-5 years old, 2.5-4 kg) through a catheter inserted from the nostrils into the stomach and about 1 ml of blood was taken over a period of 48 hours at specified time intervals (15 minutes, 30 minutes, and 1, 2, 4, 6, 8, 10, 24 and 48 hours). The concentration of the test substance in the sampled plasma was measured by use of LC/MS/MS (ESI, eluant: acetonitrile/water) and AUC was determined by moment analysis. The test substances were compound 1 and compound 4. The second component prepared in step 1 of Example 1 was used as control compound 1.

Series [3] relates to bone marrow derived osteoclast precursor cells. The series can be described thus: Differentiation of bone marrow derived osteoclast precursor cells into mature osteoclasts (TRAP staining). It counts as cell-based, ddY mice. The conditions noted are these: mean ± SD, n=3, 48-well plates. As for the experimental part: Bone marrow cells separated from the vertebrae of ddY mice (male, 7-9 week old) were cultivated on cell culture plates for 3 days in the presence of a macrophage colony-stimulating factor (M-CSF, 10 ng/ml). The suspended cells were washed with PBS and removed whereas the cells adhering to the plates were used as osteoclast precursor cells. Following the addition of more M-CSF (10 ng/ml) and a soluble RANK ligand (sRANKL, 40 ng/ml), the precursors were cultivated for 3-4 days in order to induce the maturation of osteoclasts. Before this cultivation, either compound 1 or a solvent (ethanol) alone was added in order to see what effects they would have. The maturation of osteoclasts was evaluated by staining the cultivated cells with a tartrate resistant acid phosphatase (TRAP) and counting the number of trinuclear and higher TRAP stained cells. Table 1 and FIG. 1 show the mean and SD values for the experiment in which the number of mature osteoclasts that were produced per well in 48-well plates was evaluated for n=3.

The test system of series [4] is increase in the weight of the uterus induced by 17β-estradiol benzoate. The experiment in a line: Anti-estrogen activity in oral administration (suppression of estradiol-induced increase in uterus weight in ovariectomized mice). It counts as in vivo. The conditions noted are these: ovariectomized ICR mice, oral 10 mg/kg once a day for 3 days, 17β-estradiol benzoate 0.1 μg s.c. As for the experimental part:
In the test, each of the test compounds and a control compound were suspended in a 5% gum arabic solution and administered to the mice orally in doses of 10 mg/kg on a once-a-day basis for 3 days. Twenty-four hours after the administration of the final dose, the test animals were slaughtered and the uterus was extracted and its weight was measured.

For series [5], the target named is T1, intranuclear estrogen receptor (EgR) (Homo sapiens, UniProt P03372).
T1 construct: endogenous in cells; host or cells: MCF-7 (ATCC)
T1 sequence (P03372 whole entry): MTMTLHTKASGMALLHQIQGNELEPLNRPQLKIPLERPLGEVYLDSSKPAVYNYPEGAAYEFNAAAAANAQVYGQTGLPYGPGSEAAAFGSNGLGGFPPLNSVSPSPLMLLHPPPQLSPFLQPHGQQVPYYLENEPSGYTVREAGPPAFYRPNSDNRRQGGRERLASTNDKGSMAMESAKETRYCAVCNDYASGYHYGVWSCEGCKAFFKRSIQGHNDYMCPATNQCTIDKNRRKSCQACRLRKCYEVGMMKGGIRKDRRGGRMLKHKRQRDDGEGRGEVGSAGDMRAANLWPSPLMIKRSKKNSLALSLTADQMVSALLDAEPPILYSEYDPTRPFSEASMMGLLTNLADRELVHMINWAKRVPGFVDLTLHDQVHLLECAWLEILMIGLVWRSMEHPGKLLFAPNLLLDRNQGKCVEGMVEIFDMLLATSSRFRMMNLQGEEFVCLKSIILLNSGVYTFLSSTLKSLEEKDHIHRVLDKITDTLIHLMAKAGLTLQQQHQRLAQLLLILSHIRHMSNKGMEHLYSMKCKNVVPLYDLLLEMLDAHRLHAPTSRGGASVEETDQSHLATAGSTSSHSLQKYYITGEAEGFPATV
The experiment in a line: Estrogen receptor downregulating activity (intranuclear EgR content in MCF-7). It counts as cell-based. The conditions noted are these: MCF-7 cells; for DC50: 2 days with compound, ER-EIA, read-out: IC50 (intranuclear EgR content). As for the experimental part:
Tris(hydroxymethyl)aminomethane, dithiothreitol and glycerol were obtained from Nacalai Tesque. Protease inhibitor tablets were obtained from Boehringer Mannheim. Human breast cancer cell line MCF-7 was obtained from ATCC, fetal calf serum (FCS) from Hyclone, DMEM from Invitrogen, and PBS(−) from Nissui.
Tris-HCl buffer (1 mol/L, pH=7.4) was diluted 50-fold with distilled water to a concentration of 20 mmol/L (pH=7.4). To the diluted buffer, dithiothreitol and glycerol were added to give respective final concentrations of 1 mmol/L and 10%. Further, protease inhibitor tablets were added, with one tablet per 50 mL of buffer. The thus conditioned solution was used as a solubilizing buffer.
Samples for quantitating the intranuclear estrogen receptor (EgR) were prepared by the following procedure. MCF-7 cultivated in 5% FCS/DMEM was sown on 6-cm dishes at a concentration of 4×10^5 cells/dish and cultivated for 3 days; cultivation was continued for an additional 2 days in the presence of compound 1 or compound 2 at final concentrations of 1-100 nmol/L or in the presence of compound 4 at final concentrations of 1-1,000 nmol/L or compound 5 at final concentrations of 1-10,000 nmol/L. Thereafter, the cells were washed with PBS(−), mixed with the solubilizing buffer, subjected to two cycles of freezing at −80° C. and thawing at room temperature, and centrifuged at 4° C. for 10 minutes at 4000 rpm (centrifuge: TOMY, Model MX-150). To the precipitation, the solubilizing buffer containing 500 mmol/L of NaCl was added and the mixture was treated with a micro-tube mixer (TOMY, Model MT-360) at 4° C. for about 30 minutes. Following centrifugation at 4° C. for 30 minutes at 15,000 rpm (centrifuge: TOMY, Model MX-150), the supernatant was collected and stored at −80° C. as an extracted nuclear sample. The EgR content in the extracted nuclear sample was measured with an EgR assay kit (ER-EIA “ABBOT” of Dynapot).

For another series, the system named is breast cancer. As to conditions: cited from earlier work.

Each structure is given as a SMILES string.

On to `C[C@]12CC[C@@H]3c4ccc(O)cc4C[C@@H](CCCCCCCCC(CCCC(F)(F)C(F)(F)C(F)(F)C(F)(F)F)C(=O)O)[C@H]3[C@@H]1CC[C@@H]2O` (single isomer, unassigned) [Control compound 2, 10-(3,17β-dihydroxyestra-1,3,5(10)-trien-7α-yl)-2-(4,4,5,5,6,6,7,7,7-nonafluoroheptyl)decanoic acid, reference compound], for which the “AUC∞” value in series [1] was found to be 469.73 µg·h/mL.
For orientation: AUC(0-inf) means total exposure, with the tail of the curve extrapolated. Take `C[C@]12CC[C@@H]3c4ccc(O)cc4C[C@@H](CCCCCCCCC(CCCC(F)(F)C(F)(F)C(F)(F)C(F)(F)F)C(=O)O)[C@H]3[C@@H]1CCC2=O` (single isomer, unassigned) [Compound 1, 10-(3-hydroxy-17-oxo-estra-1,3,5(10)-trien-7α-yl)-2-(4,4,5,5,6,6,7,7,7-nonafluoroheptyl)decanoic acid]: the AUC(0-inf) in series [2] was 2.42 µg·h/mL; in series [1], 468 µg·h/mL. Also, the “No. of mature osteoclasts per well” value came out at 0 ± 0 in series [3] (M-CSF + sRANKL + compound at 10^−4 mol/L) and 34 ± 10 in series [3] (M-CSF + sRANKL + compound at 10^−5 mol/L). Besides, in series [4], the “Percent suppression (%) of the increase in the weight of the uterus” value (“Percent suppression (%) of the increase” below) is given as 96%. The “Intranuclear EgR content (in words)” value in series [5] was “reduced the intranuclear EgR content in a dose-dependent manner”. The DC50 in series [5] amounted to 8.4 nM.
On to `C[C@]12CC[C@@H]3c4ccc(O)cc4C[C@@H](CCCCCCCCC[S+]([O-])CCCC(F)(F)C(F)(F)F)[C@H]3[C@@H]1CC[C@@H]2O` (stereo partly shown) [Faslodex], for which, in the series on breast cancer (clinical tests, versus a SERM drug and an aromatase inhibitor), the “Objective response rate and duration of response to breast cancer” value was “superior to a SERM drug and an aromatase inhibitor”. Further, the “Efficacy against tamoxifen-resistant breast cancer” value in the series with breast cancer (tamoxifen-resistant breast cancer) was “effective against tamoxifen-resistant breast cancer”.
With `C[C@]12C[C@H](CCCCCCCCC(CCCC(F)(F)C(F)(F)C(F)(F)C(F)(F)F)C(=O)O)[C@@H]3c4ccc(O)cc4CC[C@H]3[C@@H]1CCC2=O` (stereo partly drawn) [Compound 3, 10-(3-hydroxy-17-oxo-estra-1,3,5(10)-trien-11β-yl)-2-(4,4,5,5,6,6,7,7,7-nonafluoroheptyl)decanoic acid], the “Percent suppression (%) of the increase” value in series [4] came to 99%.
`C#C[C@]1(O)CCC2C3C(CC[C@@]21C)c1ccc(O)cc1C[C@H]3CCCCCCCCC(CCCC(F)(F)C(F)(F)C(F)(F)C(F)(F)F)C(=O)O` (single isomer, unassigned) [Compound 4, 10-(3,17β-dihydroxy-17α-ethynyl-estra-1,3,5(10)-trien-7α-yl)-2-(4,4,5,5,6,6,7,7,7-nonafluoroheptyl)decanoic acid] displayed an area under the curve AUC(0-inf) in series [2] of 3.8 µg·h/mL. Moreover, the “AUC∞” value in series [1] is 202.10 µg·h/mL. The “Percent suppression (%) of the increase” value in series [4] (10 mg/kg) stood at 94%. Besides, in series [5], the “Intranuclear EgR content (in words)” value is given as “reduced the intranuclear EgR content in a dose-dependent manner” and the DC50 stood at 14 nM.
`C[C@]12CC[C@@H]3c4ccc(O)cc4C[C@@H](CCCCCCCCC(CCCC(F)(F)C(F)(F)C(F)(F)C(F)(F)F)C(=O)O)[C@H]3[C@@H]1CC[C@@H]2O` (single isomer, unassigned) [Control compound 1, 10-(3,17β-dihydroxyestra-1,3,5(10)-trien-7α-yl)-2-(4,4,5,5,6,6,7,7,7-nonafluoroheptyl)decanoic acid, reference compound]: the area under the curve AUC(0-inf) in series [2] turned out to be 0.42 µg·h/mL; in series [1], 274 µg·h/mL.
For `C#C[C@]1(O)CCC2C3C(CC[C@@]21C)c1ccc(O)cc1C[C@H]3CCCCCCCCC(CCCC(F)(F)C(F)(F)C(F)(F)C(F)(F)F)C(=O)O` (single isomer, unassigned) [Compound 5, 10-(3,17β-dihydroxy-17α-ethynyl-estra-1,3,5(10)-trien-7α-yl)-2-(4,4,5,5,6,6,7,7,7-nonafluoroheptyl)decanoic acid], the “AUC∞” value in series [1] came out at 661.00 µg·h/mL. The “Percent suppression (%) of the increase” value in series [4] (10 mg/kg) came to 96%. Besides, in series [5], the “Intranuclear EgR content (in words)” value was “reduced the intranuclear EgR content in a dose-dependent manner” and the DC50 was determined as 100 nM.
Turning to `C[C@]12CC[C@@H]3c4ccc(O)cc4C[C@@H](CCCCCCCCC(CCCC(F)(F)C(F)(F)C(F)(F)C(F)(F)F)C(=O)O)[C@H]3[C@@H]1CCC2=O` (single isomer, unassigned) [Compound 2, 10-(3-hydroxy-17-oxo-estra-1,3,5(10)-trien-7α-yl)-2-(4,4,5,5,6,6,7,7,7-nonafluoroheptyl)decanoic acid], in series [1], the “AUC∞” value worked out at 722.55 µg·h/mL. Besides, in series [5], the “Intranuclear EgR content (in words)” value is “reduced the intranuclear EgR content in a dose-dependent manner” and the DC50 was 8.7 nM.
